In patent US20060069132A1, “Azolecarboxamide herbicides” (priority 2004, published 2006):

Tests used:
[1] = system: wheat; test: Test B postemergence herbicide test; assay type: in vivo, Triticum aestivum; set-up: key to Wheat plant response rating: 0 = no effect, 100 = complete control
Experimental: (§1) At the same time, plants selected from these crop and weed species and also blackgrass (Alopecurus myosuroides Huds.), wheat (Triticum aestivum L.) and wild oat (Avena fatua L.) were treated with postemergence applications of test chemicals formulated in the same manner. Plants ranged in height from 2 to 18 cm (1- to 4-leaf stage) for postemergence treatments. Plant species in the flooded paddy test consisted of rice (Oryza sativa L.), small flower umbrella sedge (Cyperus difformis L.), ducksalad (Heteranthera limosa (Sw.) Willd.) and barnyardgrass (Echinochloa crus-galli (L.) Beauv.) grown to the 2-leaf stage for testing. Treated plants and controls were maintained in a greenhouse for 13 to 15 days, after which time all species were compared to controls and visually evaluated. Plant response ratings, summarized in Table B, are based on a scale of 0 to 100 where 0 is no effect and 100 is complete control. A dash (-) response means no test result.

[2] = system: large crabgrass; test: Test B pre-/postemergence herbicide test; assay type: in vivo, Digitaria sanguinalis; details: for Plant response rating (0 to 100 scale), Crabgrass, Large: 0 is no effect, preemergence; for Crabgrass, Large plant response rating: postemergence
Source text: (§2) Seeds selected from barnyardgrass (Echinochloa crus-galli (L.) Beauv.), Surinam grass (Urochloa decumbens (Staph) R. D. Webster, previously named Brachiaria decumbens Stapf), cocklebur (Xanthium strumarium L.), corn (Zea mays L.), large crabgrass (Digitaria sanguinalis (L.) Scop.), giant foxtail (Setaria faberi Herim.), lambsquarters (Chenopodium album L.), morningglory (Ipomoea coccinea L.), pigweed (Amaranthus retroflexus L.), rice (Oryza sativa L.) and velvetleaf (Abutilon theophrasti Medik.) were planted and treated preemergence with test chemicals formulated in a non-phytotoxic solvent mixture which included a surfactant.
as §1

[3] = system: small flower umbrella sedge; test: Test B flooded paddy test; assay type: in vivo, Cyperus difformis; details: 1000 g ai/ha, scale 0 to 100 (0 no effect, 100 complete control)
Experimental: as §1

[4] = system: wild oat; test: Test B postemergence herbicide test; assay type: in vivo, Avena fatua; details: 125 g ai/ha; visual rating, scale 0 (no effect) to 100 (complete control); postemergence
Experimental: as §1

[5] = system: barnyardgrass; test: Test B pre-/postemergence herbicide test; assay type: in vivo, Echinochloa crus-galli; details: for Plant response rating (0 to 100 scale), Barnyardgrass: 0 is no effect, preemergence; for Barnyardgrass plant response rating: postemergence
Source text: as §2, §1

[6] = system: pigweed; test: Test B pre-/postemergence herbicide test; assay type: in vivo, Amaranthus retroflexus; details: 125 g ai/ha; for Plant response rating (0 to 100 scale), Pigweed: 0 is no effect, 100 is complete control, preemergence; for Pigweed plant response rating: visual rating, scale 0 (no effect) to 100 (complete control), postemergence
Source text: as §2, §1

[7] = system: ducksalad; test: Test B flooded paddy test; assay type: in vivo, Heteranthera limosa; details: 1000 g ai/ha, scale 0 to 100 (0 no effect, 100 complete control)
Experimental: as §1

[8] = system: corn; test: Test B pre-/postemergence herbicide test; assay type: in vivo, Zea mays; details: for Plant response rating (0 to 100 scale), Corn: 0 is no effect, preemergence; for Corn plant response rating: postemergence
Source text: as §2, §1

[9] = system: velvetleaf; test: Test B pre-/postemergence herbicide test; assay type: in vivo, Abutilon theophrasti; details: 125 g ai/ha; for Plant response rating (0 to 100 scale), Velvetleaf: 0 is no effect, 100 is complete control, preemergence; for Velvetleaf plant response rating: visual rating, scale 0 (no effect) to 100 (complete control), postemergence
Source text: as §2, §1

[10] = system: barnyardgrass; test: Test B flooded paddy test; assay type: in vivo, Echinochloa crus-galli; details: 1000 g ai/ha, scale 0 to 100 (0 no effect, 100 complete control)
Experimental: as §1

[11] = system: rice; test: Test B flooded paddy test; assay type: in vivo, Oryza sativa; details: 1000 g ai/ha, scale 0 to 100 (0 no effect, 100 complete control)
Experimental: as §1

[12] = system: blackgrass; test: Test B postemergence herbicide test; assay type: in vivo, Alopecurus myosuroides; details: postemergence
Experimental: as §1

[13] = system: lambsquarters; test: Test B pre-/postemergence herbicide test; assay type: in vivo, Chenopodium album; details: 125 g ai/ha; for Plant response rating (0 to 100 scale), Lambsquarters: 0 is no effect, 100 is complete control, preemergence; for Lambsquarters plant response rating: visual rating, scale 0 (no effect) to 100 (complete control), postemergence
Source text: as §2, §1

[14] = system: morningglory; test: Test B pre-/postemergence herbicide test; assay type: in vivo, Ipomoea coccinea; details: 125 g ai/ha; for Plant response rating (0 to 100 scale), Morningglory: 0 is no effect, 100 is complete control, preemergence; for Morningglory plant response rating: visual rating, scale 0 (no effect) to 100 (complete control), postemergence
Source text: as §2, §1

[15] = system: giant foxtail; test: Test B pre-/postemergence herbicide test; assay type: in vivo, Setaria faberi; details: for Plant response rating (0 to 100 scale), Foxtail, Giant: 0 is no effect, preemergence; for Foxtail, Giant plant response rating: postemergence
Source text: as §2, §1

[16] = system: cocklebur; test: Test B pre-/postemergence herbicide test; assay type: in vivo, Xanthium strumarium; details: for Plant response rating (0 to 100 scale), Cocklebur: 0 is no effect, preemergence; for Cocklebur plant response rating: postemergence
Source text: as §2, §1

[17] = system: Surinam grass; test: Test B pre-/postemergence herbicide test; assay type: in vivo, Urochloa decumbens; details: 125 g ai/ha; for Plant response rating (0 to 100 scale), Surinam Grass: 0 is no effect, 100 is complete control, preemergence; for Surinam Grass plant response rating: visual rating, scale 0 (no effect) to 100 (complete control), postemergence
Source text: as §2, §1

[18] = 125 g ai/ha, visual rating, scale 0 (no effect) to 100 (complete control), postemergence
[19] = 500 g ai/ha, scale 0 to 100, 0 no effect, 100 complete control, preemergence
[20] = 125 g ai/ha, 100 is complete control
[21] = 125 g ai/ha, visual rating, scale 0 (no effect) to 100 (complete control)
[22] = 500 g ai/ha, scale 0 to 100, 0 is no effect, 100 is complete control

SMILES	Wheat plant response rating [1, 18]	Wheat plant response rating [1, 19]	Plant response rating (0 to 100 scale), Crabgrass, Large [2, 20]	Crabgrass, Large plant response rating [2, 21]	Crabgrass, Large plant response rating [2, 22]	Sedge, Umbrella plant response rating [3]	Oat, Wild plant response rating [4]	Plant response rating (0 to 100 scale), Barnyardgrass [5, 20]	Barnyardgrass plant response rating [5, 21]	Barnyardgrass plant response rating [5, 22]	Plant response rating (0 to 100 scale), Pigweed [6]	Pigweed plant response rating [6]	Ducksalad plant response rating [7]	Plant response rating (0 to 100 scale), Corn [8, 20]	Corn plant response rating [8, 21]	Corn plant response rating [8, 22]	Plant response rating (0 to 100 scale), Velvetleaf [9]	Velvetleaf plant response rating [9]	Barnyardgrass plant response rating [10]	Rice plant response rating [11]	other results
CCc1nn(C(C)(C)C)nc1C(=O)Nc1cc(C(=O)N2CC=CC2)ccc1F [Compound 363]	10	30	20	10	10	80	20	0	0	0	0	20	90	0	0	0	0	10	60	60	Blackgrass plant response rating [12, 21]: 20; Blackgrass plant response rating [12, 22]: 70; Plant response rating (0 to 100 scale), Lambsquarters [13]: 0; Lambsquarters plant response rating [13]: 30; Plant response rating (0 to 100 scale), Morningglory [14]: 0; Morningglory plant response rating [14]: 50; Plant response rating (0 to 100 scale), Foxtail, Giant [15, 20]: 20; Foxtail, Giant plant response rating [15, 21]: 10; Foxtail, Giant plant response rating [15, 22]: 10; Plant response rating (0 to 100 scale), Cocklebur [16, 20]: 0; Cocklebur plant response rating [16, 21]: 20; Cocklebur plant response rating [16, 22]: 30; Plant response rating (0 to 100 scale), Surinam Grass [17]: 0; Surinam Grass plant response rating [17]: 10
CCc1nn(C(C)(C)C)nc1C(=O)Nc1cccc(C(=O)N(C)C)c1 [Compound 364]	10	100	100	30	70	100	20	100	10	70	100	40	100	80	10	40	100	20	90	90	Blackgrass plant response rating [12, 21]: 30; Blackgrass plant response rating [12, 22]: 80; Plant response rating (0 to 100 scale), Lambsquarters [13]: 100; Lambsquarters plant response rating [13]: 70; Plant response rating (0 to 100 scale), Morningglory [14]: 70; Morningglory plant response rating [14]: 20; Plant response rating (0 to 100 scale), Foxtail, Giant [15, 20]: 100; Foxtail, Giant plant response rating [15, 21]: 10; Foxtail, Giant plant response rating [15, 22]: 50; Plant response rating (0 to 100 scale), Cocklebur [16, 20]: 70; Cocklebur plant response rating [16, 21]: 40; Cocklebur plant response rating [16, 22]: 50; Plant response rating (0 to 100 scale), Surinam Grass [17]: 100; Surinam Grass plant response rating [17]: 30
